Key:
[1] = test system: human acute myelogeneous leukemia EOL-1 cell line; assay: s.c. EOL-1 xenotransplantation model, tumor growth; type: in vivo; settings: EOL-1 tumor-bearing male NOD/SCID mice; 75 mg/kg i.p. single dose (day 0)
Protocol: For calculation of the relative tumor volume (RTV) the tumor volumes at each measurement day were related to the day of first treatment. At each measurement day the median and mean tumor volumes per group and also the treated to control (T/C) values in percent were calculated.

[2] = test system: HL-60; assay: Prestoblue fluorescence cell viability assay, HL-60; type: cell-based; settings: HL-60 (AML), 72 h incubation
Protocol: (§1) The objective of this study was to investigate potential effects of hydroxyethyl starch (“HES 130/0.4”) on cell viability of different leukemia cell lines. The 50% inhibition concentration (IC50) was determined in 28 different leukemia cell lines using the commercially available “Prestoblue fluorescence cell viability assay” after incubation with different “HES 130/0.4” concentrations for screening reasons. The concentration range of the tested HES was 100 mg/ml-[…].
(§2) PrestoBlue® reagent is a resazurin-based solution that functions as a cell viability indicator by using the reducing power of living cells to quantitatively measure the proliferation of cells. […] This change can be detected using fluorescence or absorbance measurements (see e.g. Int J Microbiol. 2013; 2013: 420601; published online Apr. 4, 2013 doi: 10.1155/2013/420601 PMCID PMC3638707). […]
(§3) Cells were harvested during the logarithmic growth period and counted using the commercially available cell counting device Countstar. […]
(§4) The test plate was incubated for 72 h in a humidified incubator at 37° C. with 5% CO2, and then measured by means of PrestoBlue assay. […] The plate was then incubated at room temperature for 30 minutes until fluorescence (T0) could be recorded using EnVision Multi Label Reader (Excitation: 540-570 nm/Emission: 580-610 nm). […]

[3] = test system: ML-2; assay: Prestoblue fluorescence cell viability assay, ML-2; type: cell-based; settings: ML-2 (AML), 72 h incubation
Protocol: as §1, §2, §3, §4

[4] = test system: JVM-13; assay: Prestoblue fluorescence cell viability assay, JVM-13; type: cell-based; settings: JVM-13 (CLL), 72 h incubation
Protocol: as §1, §2, §3, §4

[5] = test system: EHEB; assay: Prestoblue fluorescence cell viability assay, EHEB; type: cell-based; settings: EHEB (CLL), 72 h incubation
Protocol: as §1, §2, §3, §4

[6] = test system: JVM-2; assay: Prestoblue fluorescence cell viability assay, JVM-2; type: cell-based; settings: JVM-2 (CLL), 72 h incubation
Protocol: as §1, §2, §3, §4

[7] = test system: NALM 6; assay: Prestoblue fluorescence cell viability assay, NALM 6; type: cell-based; settings: NALM 6 (ALL), 72 h incubation
Protocol: as §1, §2, §3, §4

[8] = test system: MEG-01; assay: Prestoblue fluorescence cell viability assay, MEG-01; type: cell-based; settings: MEG-01 (CML), 72 h incubation
Protocol: as §1, §2, §3, §4

[9] = test system: MEC-2; assay: Prestoblue fluorescence cell viability assay, MEC-2; type: cell-based; settings: MEC-2 (CLL), 72 h incubation
Protocol: as §1, §2, §3, §4

[10] = test system: THP-1; assay: Prestoblue fluorescence cell viability assay, THP-1; type: cell-based; settings: THP-1 (AML), 72 h incubation
Protocol: as §1, §2, §3, §4

[11] = test system: MOLM-13; assay: Prestoblue fluorescence cell viability assay, MOLM-13; type: cell-based; settings: MOLM-13 (AML), 72 h incubation
Protocol: as §1, §2, §3, §4

[12] = test system: Kasumi-1; assay: Prestoblue fluorescence cell viability assay, Kasumi-1; type: cell-based; settings: Kasumi-1 (AML), 72 h incubation
Protocol: as §1, §2, §3, §4

[13] = test system: TF-1; assay: Prestoblue fluorescence cell viability assay, TF-1; type: cell-based; settings: TF-1 (AML), 72 h incubation
Protocol: as §1, §2, §3, §4

[14] = test system: CCRF-SB; assay: Prestoblue fluorescence cell viability assay, CCRF-SB; type: cell-based; settings: CCRF-SB (ALL), 72 h incubation
Protocol: as §1, §2, §3, §4

[15] = test system: KU812; assay: Prestoblue fluorescence cell viability assay, KU812; type: cell-based; settings: KU812 (CML), 72 h incubation
Protocol: as §1, §2, §3, §4

[16] = test system: MOLM-16; assay: Prestoblue fluorescence cell viability assay, MOLM-16; type: cell-based; settings: MOLM-16 (AML), 72 h incubation
Protocol: as §1, §2, §3, §4

[17] = test system: Jurkat; assay: Prestoblue fluorescence cell viability assay, Jurkat; type: cell-based; settings: Jurkat (ALL), 72 h incubation
Protocol: as §1, §2, §3, §4

[18] = test system: MV-4-11; assay: Prestoblue fluorescence cell viability assay, MV-4-11; type: cell-based; settings: MV-4-11 (AML), 72 h incubation
Protocol: as §1, §2, §3, §4

[19] = test system: Reh; assay: Prestoblue fluorescence cell viability assay, Reh; type: cell-based; settings: 72 h incubation
Protocol: as §1, §2, §3, §4

[20] = test system: SUP-B15; assay: Prestoblue fluorescence cell viability assay, SUP-B15; type: cell-based; settings: SUP-B15 (ALL), 72 h incubation
Protocol: as §1, §2, §3, §4

[21] = test system: MUTZ-5; assay: Prestoblue fluorescence cell viability assay, MUTZ-5; type: cell-based; settings: MUTZ-5 (ALL), 72 h incubation
Protocol: as §1, §2, §3, §4

[22] = test system: JVM-3; assay: Prestoblue fluorescence cell viability assay, JVM-3; type: cell-based; settings: JVM-3 (CLL), 72 h incubation
Protocol: as §1, §2, §3, §4

[23] = test system: PEER IE6; assay: Prestoblue fluorescence cell viability assay, PEER IE6; type: cell-based; settings: PEER IE6 (ALL), 72 h incubation
Protocol: as §1, §2, §3, §4

[24] = test system: MHH-CALL-2; assay: Prestoblue fluorescence cell viability assay, MHH-CALL-2; type: cell-based; settings: MHH-CALL-2 (ALL), 72 h incubation
Protocol: as §1, §2, §3, §4

[25] = test system: Molt-4; assay: Prestoblue fluorescence cell viability assay, Molt-4; type: cell-based; settings: Molt-4 (ALL), 72 h incubation
Protocol: as §1, §2, §3, §4

[26] = test system: MEC-1; assay: Prestoblue fluorescence cell viability assay, MEC-1; type: cell-based; settings: MEC-1 (CLL), 72 h incubation
Protocol: as §1, §2, §3, §4

[27] = test system: RS4;11; assay: Prestoblue fluorescence cell viability assay, RS4;11; type: cell-based; settings: RS4;11 (ALL), 72 h incubation
Protocol: as §1, §2, §3, §4

[28] = test system: K-562; assay: Prestoblue fluorescence cell viability assay, K-562; type: cell-based; settings: K-562 (CML), 72 h incubation
Protocol: as §1, §2, §3, §4

[29] = test system: NB4; assay: Prestoblue fluorescence cell viability assay, NB4; type: cell-based; settings: NB4 (AML), 72 h incubation
Protocol: as §1, §2, §3, §4

O=P1(N(CCCl)CCCl)NCCCO1 (stereo not drawn) [Cyclophosphamide]
inhibition of tumor growth [1]: significant inhibition

N.N.[Cl][Pt][Cl] [Cisplatin, cisplatin]
IC50 [2]: 450 µg/mL | Max-inhibition [2]: 100% | IC50 [3]: 350 µg/mL | Max-inhibition [3]: 100% | IC50 [4]: 180 µg/mL | Max-inhibition [4]: 100% | IC50 [5]: 490 µg/mL | Max-inhibition [5]: 100% | IC50 [6]: 180 µg/mL | Max-inhibition [6]: 100% | IC50 [7]: 240 µg/mL | Max-inhibition [7]: 100% | IC50 [8]: 830 µg/mL | Max-inhibition [8]: 100% | IC50 [9]: 1670 µg/mL | Max-inhibition [9]: 100% | IC50 [10]: 640 µg/mL | Max-inhibition [10]: 100% | IC50 [11]: 340 µg/mL | Max-inhibition [11]: 100% | IC50 [12]: 780 µg/mL | Max-inhibition [12]: 100% | IC50 [13]: 1720 µg/mL | Max-inhibition [13]: 100% | IC50 [14]: 100 µg/mL | Max-inhibition [14]: 100% | IC50 [15]: 250 µg/mL | Max-inhibition [15]: 100% | IC50 [16]: 650 µg/mL | Max-inhibition [16]: 100% | IC50 [17]: 200 µg/mL | Max-inhibition [17]: 100% | IC50 [18]: 160 µg/mL | Max-inhibition [18]: 100% | Max-inhibition ([19]; Reh (AML)): 100% | IC50 ([19]; Reh (B-ALL)): 170 µg/mL | IC50 [20]: 450 µg/mL | Max-inhibition [20]: 100% | IC50 [21]: 190 µg/mL | Max-inhibition [21]: 100% | IC50 [22]: 270 µg/mL | Max-inhibition [22]: 100% | IC50 [23]: 3730 µg/mL | Max-inhibition [23]: 100% | IC50 [24]: 140 µg/mL | Max-inhibition [24]: 100% | IC50 [25]: 150 µg/mL | Max-inhibition [25]: 100% | IC50 [26]: 1150 µg/mL | Max-inhibition [26]: 100% | IC50 [27]: 50 µg/mL | Max-inhibition [27]: 100% | IC50 [28]: 1290 µg/mL | Max-inhibition [28]: 100% | IC50 [29]: 140 µg/mL | Max-inhibition [29]: 100%

Reference: patent US10272102B2, “Hydroxyalkyl starch for the treatment of hematological neoplasms” (FRESENIUS KABI DEUTSCHLAND GMBH, priority 2013, dated 2019)
